The values that follow come from patent US20260262643A1, “HERBICIDAL BENZOXAZINES” (FMC CORPORATION, priority 2022, published 2026).

Each structure is given as a SMILES string. Where two headings read alike, the source gives them in different places.

Experiment [1] deals with foxtail, giant. The experiment is described as follows: Test A preemergence. The class given is in vivo, Setaria faberi. As to conditions: Setaria faberi, pre-emergence, 240 h, read-out: Plant response rating, Foxtail, Giant; for pest or weed control at 125 g/ha: 125 g ai/ha; for pest or weed control at 500 g/ha: 500 g ai/ha. In outline:
(§1)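 Plants were grown in loam and sand and treated preemergence or postemergence (one- to two-leaf stage, 2–10 cm) with compound in solvent plus surfactant. Response was scored against untreated controls after 10 greenhouse days, where 0 means no effect and 100 complete control.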

In experiment [2] the test system is goosegrass. The experiment is described as follows: Test A preemergence. The class given is in vivo, Eleusine indica. As to conditions: Eleusine indica, pre-emergence, 240 h, read-out: Plant response rating, Goosegrass; for pest or weed control at 125 g/ha: 125 g ai/ha; for pest or weed control at 500 g/ha: 500 g ai/ha. In outline:
as §1

The test system of experiment [3] is oat, wild. The experiment is described as follows: Test A preemergence. The class given is in vivo, Avena fatua. As to conditions: Avena fatua, pre-emergence, 240 h, read-out: Plant response rating, Oat, Wild; for pest or weed control at 125 g/ha: 125 g ai/ha; for pest or weed control at 500 g/ha: 500 g ai/ha. In outline: as §1
The subject of experiment [4] is pigweed, palmer. Briefly: Test A preemergence. The class given is in vivo, Amaranthus palmeri. To be noted: Amaranthus palmeri, pre-emergence, 240 h, read-out: Plant response rating, Pigweed, Palmer; for pest or weed control at 125 g/ha: 125 g ai/ha; for pest or weed control at 500 g/ha: 500 g ai/ha. In outline:
as §1

Experiment [5] has as its system ryegrass, Italian. Briefly: Test A preemergence. Format: in vivo, Lolium multiflorum. As to conditions: Lolium multiflorum, pre-emergence, 240 h, read-out: Plant response rating, Ryegrass, Italian; for pest or weed control at 125 g/ha: 125 g ai/ha; for pest or weed control at 500 g/ha: 500 g ai/ha. In outline:
as §1

Experiment [6] relates to corn. The experiment is described as follows: Test A postemergence. Format: in vivo, Zea mays. As to conditions: Zea mays, post-emergence, 240 h, postemergence, 10 days, 0 to 100 scale (0 no effect, 100 complete control); for Corn plant response rating (crop injury, 0 = no effect, 100 = complete kill) at 500 g/ha: 500 g ai/ha; for Corn plant response rating (crop injury, 0 = no effect, 100 = complete kill) at 500 g/ha / Corn plant response rating (crop injury, 0 = no effect, 100 = complete kill) at 125 g/ha: visual injury. In outline:
as §1

The subject of experiment [7] is oat, wild. Briefly: Test A postemergence. Format: in vivo, Avena fatua. To be noted: Avena fatua, post-emergence, 240 h, postemergence, 10 days, 0 to 100 scale (0 no effect, 100 complete control); for pest or weed control at 500 g/ha: 500 g ai/ha, visual injury, read-out: Plant response rating, Oat, Wild. In outline: as §1
The test system of experiment [8] is pigweed, palmer. The experiment is described as follows: Test A postemergence. The class given is in vivo, Amaranthus palmeri. As to conditions: Amaranthus palmeri, post-emergence, 240 h, postemergence, 10 days, 0 to 100 scale (0 no effect, 100 complete control); for pest or weed control at 500 g/ha: 500 g ai/ha, visual injury, read-out: Plant response rating, Pigweed, Palmer. In outline:
as §1

Experiment [9] deals with ryegrass, Italian. The experiment is described as follows: Test A postemergence. Format: in vivo, Lolium multiflorum. As to conditions: Lolium multiflorum, post-emergence, 240 h, postemergence, 10 days, 0 to 100 scale (0 no effect, 100 complete control); for pest or weed control at 500 g/ha: 500 g ai/ha, visual injury, read-out: Plant response rating, Ryegrass, Italian. In outline: as §1

The subject of experiment [10] is soybean. The experiment is described as follows: Test A postemergence. Format: in vivo, Glycine max. To be noted: Glycine max, post-emergence, 240 h, postemergence, 10 days, 0 to 100 scale (0 no effect, 100 complete control); for plant injury at 500 g/ha: 500 g ai/ha, visual injury, read-out: Plant response rating, Soybean. In outline: as §1
Experiment [11] deals with galium. Briefly: Test A postemergence. The class given is in vivo, Galium aparine. To be noted: Galium, post-emergence, 240 h, postemergence, 10 days, 0 to 100 scale (0 no effect, 100 complete control); for pest or weed control at 125 g/ha: 125 g ai/ha; for pest or weed control at 500 g/ha: 500 g ai/ha. In outline:
as §1

Experiment [12] has as its system horseweed. The experiment is described as follows: Test A postemergence. Format: in vivo, Erigeron canadensis. As to conditions: Erigeron canadensis, post-emergence, 240 h, postemergence, 10 days, 0 to 100 scale (0 no effect, 100 complete control); for pest or weed control at 125 g/ha: 125 g ai/ha; for pest or weed control at 500 g/ha: 500 g ai/ha. In outline:
as §1

Experiment [13] relates to barnyardgrass. The experiment is described as follows: Test B flooded paddy test. Format: in vivo, Echinochloa crus-galli. As to conditions: Echinochloa crus-galli, 312 h, 250 g ai/ha, Flood, 13 days, 0 to 100 scale (0 no effect, 100 complete control); read-out: Plant response rating, Barnyardgrass. In outline:
(§2)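 Two-leaf plants, 3 cm flood, in-water application, 13-day greenhouse hold, visual 0–100 rating vs untreated checks.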

The test system of experiment [14] is sedge, umbrella. The experiment is described as follows: Test B flooded paddy test. The class given is in vivo, Cyperus difformis. As to conditions: Cyperus difformis, 312 h; 250 g ai/ha, Flood, 13 days, 0 to 100 scale (0 no effect, 100 complete control); read-out: Plant response rating, Sedge, Umbrella. In outline:
as §2

Where [15] appears, read: visual injury after 10 days, 0 to 100 scale, 0 is no effect, 100 is complete control.
The mark [16] stands for this setting: visual injury, read-out: Plant response rating, Galium.
Where [17] appears, read: visual injury, read-out: Plant response rating, Horseweed.
The mark [18] stands for this setting: 0 to 100 scale (0 no effect, 100 complete control), 10 days.

Consider `Cc1cccc2c1O[C@@H](C)CN2C(=O)c1cccc(-n2cnn(C)c2=O)c1` [Compound 117, 4-[3-[[(2S)-2,3-Dihydro-2,8-dimethyl-4H-1,4-benzoxazin-4-yl]carbonyl]phenyl]-2,4-dihydro-2-methyl-3H-1,2,4-triazol-3-one], for which the pest or weed control at 125 g/ha came out at 60% in experiment [1] (setting [15]); 50% in experiment [2] (setting [15]); 20% in [3] (setting [15]); 20% in experiment [4] (setting [15]); 40% in experiment [5] (setting [15]); 10% in experiment [7] (125 g ai/ha, read-out: Oat, Wild plant response rating). The pest or weed control at 125 g/ha in [8] (125 g ai/ha, read-out: Pigweed, Palmer plant response rating) is 10%; in [9] (125 g ai/ha, read-out: Ryegrass, Italian plant response rating), 30%; in [11] (read-out: Galium plant response rating), 0%; in [12] (read-out: Horseweed plant response rating), 0%. In addition, the pest or weed control at 500 g/ha in experiment [1] (setting [15]) came to 90%; in [2] (setting [15]), 100%; in [3] (setting [15]), 70%; in experiment [4] (setting [15]) it was 80%; in experiment [5] (setting [15]), 100%; in experiment [7] it was 40%. The pest or weed control at 500 g/ha was determined as 30% in experiment [8], 60% in experiment [9], 0% in [11] (setting [16]) and 10% in [12] (setting [17]). Moreover, the plant injury at 125 g/ha in [6] (125 g ai/ha, read-out: Corn plant response rating) is 0%; in experiment [10] (125 g ai/ha, read-out: Soybean plant response rating), 60%. In addition, the Corn plant response rating (crop injury, 0 = no effect, 100 = complete kill) at 500 g/ha in experiment [6] was 50%. The plant injury at 500 g/ha in [10] turned out to be 100%. In addition, the pest or weed control at 250 g/ha in [13] and in [14] was 0% in each case.
For the compound `Cc1ccc(-n2cnc(C(C)C)n2)cc1C(=O)N1C[C@H](C)Oc2c(Cl)cccc21` [Compound 73, [(2S)-8-Chloro-2,3-dihydro-2-methyl-4H-1,4-benzoxazin-4-yl][2-methyl-5-[3-(1-methylethyl)-1H-1,2,4-triazol-1-yl]phenyl]methanone], the pest or weed control at 125 g/ha is 100% in experiment [1] (setting [15]); 100% in experiment [2] (setting [15]); 80% in experiment [3] (setting [15]); 100% in experiment [4] (setting [15]); 90% in [5] (setting [15]); 100% in [11] (setting [16]). Further, the pest or weed control at 125 g/ha in experiment [12] (setting [17]) amounted to 30%. The pest or weed control at 500 g/ha is 100% in experiment [1] (setting [18]); 100% in [2] (setting [18]); 90% in experiment [3] (setting [18]); 100% in experiment [4] (setting [18]); 100% in experiment [5] (setting [18]); 80% in experiment [7]. In addition, the pest or weed control at 500 g/ha turned out to be 90% in [8], 100% in experiment [9], 100% in [11] (setting [16]) and 50% in [12] (setting [17]). In [6] (125 g ai/ha), the Corn plant response rating (crop injury, 0 = no effect, 100 = complete kill) at 125 g/ha is 70%. Also, the Corn plant response rating (crop injury, 0 = no effect, 100 = complete kill) at 500 g/ha in experiment [6] came to 70%. Besides, the plant injury at 500 g/ha in experiment [10] came to 100%. For the same compound, the pest or weed control at 250 g/ha in experiment [13] came out at 45%; in experiment [14], 70%.
For the compound `Cc1ncn(-c2ccc(C)c(C(=O)N3C[C@H](C)Oc4c(Cl)cccc43)c2)n1` (single isomer, unassigned) [Compound 74], the pest or weed control at 125 g/ha in experiment [1] (setting [15]) turned out to be 100%; in experiment [2] (setting [15]), 100%; in experiment [3] (setting [15]), 60%; in experiment [4] (setting [15]), 90%; in experiment [5] (setting [15]), 100%; in [11] (setting [16]), 100%. For the same compound, the pest or weed control at 125 g/ha in experiment [12] (setting [17]) is 0%. For the same compound, the pest or weed control at 500 g/ha came to 100% in [1] (setting [18]); 100% in [2] (setting [18]); 90% in experiment [3] (setting [18]); 100% in [4] (setting [18]); 100% in [5] (setting [18]); 60% in [7]. Besides, the pest or weed control at 500 g/ha in experiment [8] stood at 70%; in [9] it was 100%; in experiment [11] (setting [16]) it was 100%; in experiment [12] (setting [17]) it was 0%. In experiment [6] (125 g ai/ha), this compound gave a Corn plant response rating (crop injury, 0 = no effect, 100 = complete kill) at 125 g/ha of 60%. Besides, the Corn plant response rating (crop injury, 0 = no effect, 100 = complete kill) at 500 g/ha in experiment [6] came out at 90%. For the same compound, in experiment [10], the plant injury at 500 g/ha was 100%. Further, the pest or weed control at 250 g/ha in experiment [13] turned out to be 10%; in experiment [14], 95%.
